Data reported in US11339130B1 (Blade Therapeutics, Inc., priority 2016, dated 2022).
pIC50: −log10 of the molar value. Structures can show the parent of a compound that is named as a salt. Where two headings read alike, the source gives them in different places.

How the values were obtained:
Assay type in all cases: biochemical
Human Calpain 2/NS1 = target: T1, Human Calpain 2/NS1 (Homo sapiens, UniProt P17655); assay: Calpain inhibition continuous fluorescence (FRET) assay, Human Calpain 2/NS1; settings: read-out: Human Calpain 2/NS1 IC50
T1 sequence (P17655 1-700): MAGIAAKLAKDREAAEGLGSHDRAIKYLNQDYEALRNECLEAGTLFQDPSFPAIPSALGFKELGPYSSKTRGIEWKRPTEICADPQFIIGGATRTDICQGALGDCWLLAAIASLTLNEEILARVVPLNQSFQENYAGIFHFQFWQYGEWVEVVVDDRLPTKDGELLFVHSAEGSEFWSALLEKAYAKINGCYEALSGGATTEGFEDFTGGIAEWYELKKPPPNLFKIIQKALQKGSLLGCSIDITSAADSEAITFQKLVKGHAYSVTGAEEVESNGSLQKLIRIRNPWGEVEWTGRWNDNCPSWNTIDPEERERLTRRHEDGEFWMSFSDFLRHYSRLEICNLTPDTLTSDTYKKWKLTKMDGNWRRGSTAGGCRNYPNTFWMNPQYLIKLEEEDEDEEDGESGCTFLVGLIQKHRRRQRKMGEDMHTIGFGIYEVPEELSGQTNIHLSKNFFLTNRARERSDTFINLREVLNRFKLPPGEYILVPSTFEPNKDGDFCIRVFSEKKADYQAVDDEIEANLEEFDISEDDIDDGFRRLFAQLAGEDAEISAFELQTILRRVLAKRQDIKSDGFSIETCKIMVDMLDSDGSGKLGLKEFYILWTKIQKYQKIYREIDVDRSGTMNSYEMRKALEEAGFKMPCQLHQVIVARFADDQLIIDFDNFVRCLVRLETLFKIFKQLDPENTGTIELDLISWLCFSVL
T1 sequence (P04632 1-268 partner): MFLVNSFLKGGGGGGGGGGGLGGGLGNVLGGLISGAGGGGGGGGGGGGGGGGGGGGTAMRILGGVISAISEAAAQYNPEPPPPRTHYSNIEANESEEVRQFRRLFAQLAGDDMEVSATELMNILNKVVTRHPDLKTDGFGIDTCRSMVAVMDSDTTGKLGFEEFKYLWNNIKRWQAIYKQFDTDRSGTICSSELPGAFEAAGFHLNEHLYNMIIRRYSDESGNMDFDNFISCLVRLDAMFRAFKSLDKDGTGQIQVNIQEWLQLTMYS
Summary of the method: (§1)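 Fluorescence increase from the cleaved 5-FAM/QXL 520 substrate, read at 490/520 nm, gave activity. Calcium was supplied with the substrate to activate the enzyme in situ after a 25C enzyme-inhibitor preincubation, and IC50s were fit from initial slopes.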

Human Calpain 9/NS1 = target: T2, Human Calpain 9/NS1 (Homo sapiens, UniProt O14815); assay: Calpain inhibition continuous fluorescence (FRET) assay, Human Calpain 9/NS1; settings: read-out: Human Calpain 9/NS1 IC50
T2 sequence (O14815 1-690): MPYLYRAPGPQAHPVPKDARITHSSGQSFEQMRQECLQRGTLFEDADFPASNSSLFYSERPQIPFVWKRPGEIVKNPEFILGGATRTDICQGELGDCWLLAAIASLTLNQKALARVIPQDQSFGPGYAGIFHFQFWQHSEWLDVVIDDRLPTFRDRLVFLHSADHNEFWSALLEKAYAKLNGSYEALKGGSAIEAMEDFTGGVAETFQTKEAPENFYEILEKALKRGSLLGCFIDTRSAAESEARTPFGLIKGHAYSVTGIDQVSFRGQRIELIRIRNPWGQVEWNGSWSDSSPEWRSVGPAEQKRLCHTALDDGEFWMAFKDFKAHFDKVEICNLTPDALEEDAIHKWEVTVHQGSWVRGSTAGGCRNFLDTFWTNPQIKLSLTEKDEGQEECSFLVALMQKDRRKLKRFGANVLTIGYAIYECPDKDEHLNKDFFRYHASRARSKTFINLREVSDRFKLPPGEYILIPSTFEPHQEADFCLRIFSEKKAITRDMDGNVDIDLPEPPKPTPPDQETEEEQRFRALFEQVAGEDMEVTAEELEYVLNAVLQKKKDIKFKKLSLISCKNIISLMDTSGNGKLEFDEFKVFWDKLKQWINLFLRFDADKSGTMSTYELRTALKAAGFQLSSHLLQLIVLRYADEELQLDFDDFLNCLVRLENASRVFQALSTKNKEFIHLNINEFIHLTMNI
T2 sequence (P04632 1-268 partner): T1 sequence (P04632 1-268 partner)
Summary of the method: as §1

Human Calpain 1/NS1 = target: T3, Human Calpain 1/NS1 (Homo sapiens, UniProt P07384); assay: Calpain inhibition continuous fluorescence (FRET) assay, Human Calpain 1/NS1; settings: read-out: Human Calpain 1/NS1 IC50
T3 sequence (P07384 1-714): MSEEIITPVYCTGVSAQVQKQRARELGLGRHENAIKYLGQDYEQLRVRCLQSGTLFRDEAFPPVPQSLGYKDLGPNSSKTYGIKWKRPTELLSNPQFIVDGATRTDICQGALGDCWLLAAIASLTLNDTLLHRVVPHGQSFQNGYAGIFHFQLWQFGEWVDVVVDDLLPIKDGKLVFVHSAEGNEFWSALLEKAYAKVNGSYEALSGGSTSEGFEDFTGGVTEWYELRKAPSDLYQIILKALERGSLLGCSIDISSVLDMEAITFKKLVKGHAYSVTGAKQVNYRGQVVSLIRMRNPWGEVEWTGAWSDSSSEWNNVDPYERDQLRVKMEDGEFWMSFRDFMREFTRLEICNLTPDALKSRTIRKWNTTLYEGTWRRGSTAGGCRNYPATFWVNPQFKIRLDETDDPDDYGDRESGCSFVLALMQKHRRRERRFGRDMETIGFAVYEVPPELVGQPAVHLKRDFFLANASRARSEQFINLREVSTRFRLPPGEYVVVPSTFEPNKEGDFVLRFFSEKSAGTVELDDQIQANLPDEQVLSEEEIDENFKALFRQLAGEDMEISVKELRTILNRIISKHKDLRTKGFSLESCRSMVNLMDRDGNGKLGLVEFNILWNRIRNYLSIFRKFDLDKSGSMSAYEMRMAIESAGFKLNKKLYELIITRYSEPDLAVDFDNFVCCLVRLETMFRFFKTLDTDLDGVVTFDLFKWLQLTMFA
T3 sequence (P04632 1-268 partner): T1 sequence (P04632 1-268 partner)
Summary of the method: as §1

| Compound | pIC50 (Human Calpain 2/NS1; Column B) | pIC50 (Human Calpain 9/NS1; Column C) | pIC50 (Human Calpain 1/NS1; Column A) | pIC50 (Human Calpain 2/NS1) | pIC50 (Human Calpain 9/NS1) | pIC50 (Human Calpain 1/NS1) |
| --- | --- | --- | --- | --- | --- | --- |
| Cc1cc(C(=O)N[C@@H](Cc2ccccc2)C(=O)C(=O)NC2CC2)n(-c2nc3ccccc3n2C)n1 [Compound 295, (S)—N-(4-(cyclopropylamino)-3,4-dioxo-1-phenylbutan-2-yl)-3-methyl-1-(1-methyl-1H-benzo[d]imidazol-2-yl)-1H-pyrazole-5-carboxamide] | < 5.00 | < 5.00 | < 5.00 |  |  |  |
| CC[C@@H](C)[C@H](NC(=O)c1c(C)noc1-c1ccccc1)C(=O)C(N)=O [Compound 73, N-((3S,4R)-1-amino-4-methyl-1,2-dioxohexan-3-yl)-3-methyl-5-phenylisoxazole-4-carboxamide] | > 5.52 | < 5.00 | > 5.52 |  |  |  |
| Cc1ccccc1-c1c(C(=O)N[C@@H](Cc2ccccc2)C(=O)C(N)=O)cnn1C [Compound 190, (S)—N-(4-amino-3,4-dioxo-1-phenylbutan-2-yl)-1-methyl-5-(o-tolyl)-1H-pyrazole-4-carboxamide] | < 5.00 | 5.00 to 5.52 | 5.00 to 5.52 |  |  |  |
| Cc1nc(C(=O)N[C@@H](Cc2ccccc2)C(=O)C(N)=O)c(-c2ccccc2)s1 [Compound 54, (S)—N-(4-amino-3,4-dioxo-1-phenylbutan-2-yl)-2-methyl-5-phenylthiazole-4-carboxamide] | > 5.52 | > 5.52 | > 5.52 |  |  |  |
| NC(=O)C(=O)[C@H](Cc1ccccc1)NC(=O)c1cc2ccccc2n1-c1ccccc1 [Compound 307, (S)—N-(4-amino-3,4-dioxo-1-phenylbutan-2-yl)-1-phenyl-1H-indole-2-carboxamide] |  |  |  | > 5.52 | > 5.52 | > 5.52 |
| Cc1cc(C(=O)N[C@@H](Cc2ccccc2)C(=O)C(N)=O)nn1-c1nc2ccccc2[nH]1 [Compound 264, (S)—N-(4-amino-3,4-dioxo-1-phenylbutan-2-yl)-1-(1H-benzo[d]imidazol-2-yl)-5-methyl-1H-pyrazole-3-carboxamide] | 5.00 to 5.52 | < 5.00 | 5.00 to 5.52 |  |  |  |
| O=C[C@H](Cc1ccccc1)NC(=O)c1cncn1-c1ncc(-c2ccccc2)cn1 [Compound 75] | > 5.52 | 5.00 to 5.52 | > 5.52 |  |  |  |
| Cc1cc(C(=O)N[C@@H](Cc2ccccc2)C(=O)C(=O)NC2CC2)n(-c2ncccc2C)n1 [Compound 67, (S)—N-(4-(cyclopropylamino)-3,4-dioxo-1-phenylbutan-2-yl)-3-methyl-1-(3-methylpyridin-2-yl)-1H-pyrazole-5-carboxamide] | < 5.00 | < 5.00 | < 5.00 |  |  |  |
| Cn1cc(-c2nn(C)cc2C(=O)NC(Cc2ccccc2)C(=O)C(N)=O)cn1 (stereo not drawn) [Compound 626, N-(4-amino-3,4-dioxo-1-phenylbutan-2-yl)-1,1′-dimethyl-1H,1′H-[3,4′-bipyrazole]-4-carboxamide] |  |  |  | > 5.52 | > 5.52 | > 5.52 |
| COc1cccc(-c2nn(C)cc2C(=O)NC(Cc2ccccc2)C(=O)C(N)=O)n1 (stereo not drawn) [Compound 487, N-(4-amino-3,4-dioxo-1-phenylbutan-2-yl)-3-(6-methoxypyridin-2-yl)-1-methyl-1H-pyrazole-4-carboxamide] |  |  |  | > 5.52 | > 5.52 | 5.00 to 5.52 |
| COc1ccc2nc(-n3nc(C)cc3C(=O)N[C@@H](Cc3ccccc3)C(=O)C(N)=O)sc2c1 [Compound 297, (S)—N-(4-amino-3,4-dioxo-1-phenylbutan-2-yl)-1-(6-methoxybenzo[d]thiazol-2-yl)-3-methyl-1H-pyrazole-5-carboxamide] | 5.00 to 5.52 | > 5.52 | < 5.00 |  |  |  |
| Cc1cc(C)nc(-n2nc(C)cc2C(=O)N[C@@H](Cc2ccccc2)C(=O)C(N)=O)c1 [Compound 123, (S)—N-(4-amino-3,4-dioxo-1-phenylbutan-2-yl)-1-(4,6-dimethylpyridin-2-yl)-3-methyl-1H-pyrazole-5-carboxamide] | > 5.52 | > 5.52 | > 5.52 |  |  |  |
| CC(C)(C)c1cc(C(=O)N[C@@H](Cc2ccccc2)C(=O)C(=O)NC2CC2)n(-c2ccccc2)n1 [Compound 137, (S)-3-(tert-butyl)-N-(4-(cyclopropylamino)-3,4-dioxo-1-phenylbutan-2-yl)-1-phenyl-1H-pyrazole-5-carboxamide] | < 5.00 | < 5.00 | < 5.00 |  |  |  |
| NC(=O)C(=O)C(Cc1ccccc1)NC(=O)c1cn(C(F)F)nc1-c1ccc2ncccc2c1 (stereo not drawn) [Compound 622, N-(4-amino-3,4-dioxo-1-phenylbutan-2-yl)-1-(difluoromethyl)-3-(quinolin-6-yl)-1H-pyrazole-4-carboxamide hydrochloride] |  |  |  | > 5.52 | > 5.52 | > 5.52 |
| Cc1nc(-c2ccccc2)c(C(=O)N[C@@H](CC(C)(C)C)C(=O)C(N)=O)o1 [Compound 391, (S)—N-(1-amino-5,5-dimethyl-1,2-dioxohexan-3-yl)-2-methyl-4-phenyloxazole-5-carboxamide] |  |  |  | > 5.52 | > 5.52 | > 5.52 |
| Cn1ncc(-c2ccccc2)c1C(=O)N[C@@H](Cc1ccccc1)C(=O)C(N)=O [Compound 240] | > 5.52 | > 5.52 | > 5.52 |  |  |  |
| Cc1cc(C(=O)N[C@@H](Cc2ccccc2)C(=O)C(N)=O)n(-c2nc3c(C)cccc3s2)n1 [Compound 298, (S)—N-(4-amino-3,4-dioxo-1-phenylbutan-2-yl)-3-methyl-1-(4-methylbenzo[d]thiazol-2-yl)-1H-pyrazole-5-carboxamide] | < 5.00 | < 5.00 | < 5.00 |  |  |  |
| NC(=O)C(=O)[C@H](Cc1ccccc1)NC(=O)c1cncn1-c1ncc(-c2ccccc2)s1 [Compound 52, (S)—N-(4-amino-3,4-dioxo-1-phenylbutan-2-yl)-1-(5-phenylthiazol-2-yl)-1H-imidazole-5-carboxamide] | > 5.52 | > 5.52 | > 5.52 |  |  |  |
| NC(=O)C(=O)[C@H](Cc1ccccc1)NC(=O)c1ncoc1-c1ccccc1 [Compound 148, (S)—N-(4-amino-3,4-dioxo-1-phenylbutan-2-yl)-5-phenyloxazole-4-carboxamide] | > 5.52 | > 5.52 | > 5.52 |  |  |  |
